12 molecules from ChEMBL document CHEMBL1201862, “PubChem BioAssay data set” (2004) can be followed below.

Some test systems named below: NCI-H23; A498; RPMI-8226; Malme-3M; TK-10; OVCAR-3; A549; SR; KM12; U-251; SK-MEL-2; ACHN; HCC 2998; UO-31; NCI-H522; IGROV-1; HL-60; CCRF-CEM.
Assay in all cases: NCI tumour cell line growth inhibition, 48 h

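96-well plates; 48 h exposure; 5 concentrations. Endpoints by linear interpolation between flanking doses. Not reached: highest tested concentration assigned. At the GI50, growth is halved.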 Activity calls are given as the source filed them. Rule as the data show it: active = GI50 up to about 1.1 µM and inactive = higher.

Consider `Cc1cc(N2CCCCC2)nc2ccc(Cc3ccc4nc(N5CCCCC5)cc(C)c4c3)cc12`, for which the GI50 in the test on NCI-H23 is > 100 µM (inactive); in the test on A498, > 100 µM (inactive); with RPMI-8226, 35.8 µM (inactive); in the test on Malme-3M it was > 100 µM (inactive); with TK-10, > 100 µM (inactive); in the test on OVCAR-3 it was > 100 µM (inactive). The GI50 is > 100 µM (inactive) in the test on A549; 24.2 µM (inactive) with SR; > 100 µM (inactive) in the test on KM12; > 100 µM (inactive) in the test on U-251; > 100 µM (inactive) in the test with SK-MEL-2; > 100 µM (inactive) in the test on ACHN. Moreover, the GI50 in the test with HCC 2998 was 22.8 µM (inactive); in the test on UO-31 it was > 100 µM (inactive); with NCI-H522 it was 83.2 µM (inactive); with IGROV-1, > 100 µM (inactive).
`CCCCCCCCCCCCCC(=O)O.O=CC(O)C(O)C(OC1OC(CO)C(O)C(O)C1O)C(O)CO` (centres undefined): the GI50 is > 100 µM (inactive) in the test on NCI-H23; > 100 µM (inactive) in the test with A498; 19.8 µM (inactive) in the test with RPMI-8226; 83.8 µM (inactive) in the test on Malme-3M; 37.7 µM (inactive) with TK-10; > 100 µM (inactive) in the test with OVCAR-3. Further, the GI50 in the test with A549 was 80.2 µM (inactive); in the test with SR, 1 µM (active); in the test on HL-60, 18.7 µM (inactive); in the test on KM12, 23.2 µM (inactive); with U-251, 35 µM (inactive); with SK-MEL-2, > 100 µM (inactive). Besides, the GI50 in the test with ACHN was > 100 µM (inactive); with UO-31, > 100 µM (inactive); in the test on NCI-H522 it was 57.4 µM (inactive); in the test on IGROV-1, 26.3 µM (inactive).
`Cc1ccn2c(CCc3nnc4cc(C)ccn34)nnc2c1`: the GI50 in the test with NCI-H23, in the test on A498, in the test on RPMI-8226, in the test on Malme-3M, with TK-10 and in the test on OVCAR-3 was > 100 µM (inactive) throughout. Moreover, the GI50 in the test on A549 is > 100 µM (inactive); in the test with SR, 15 µM (inactive); in the test with HL-60 it was 0.129 µM (active); in the test on KM12, > 100 µM (inactive); with U-251 it was > 100 µM (inactive); in the test with SK-MEL-2, > 100 µM (inactive). The GI50 in the test on ACHN, in the test with UO-31, with NCI-H522 and with IGROV-1 was > 100 µM (inactive) each time.
Consider `Cc1cc(N2CCN(C)CC2)n2nc(-c3ccc(Cl)cc3)nc2n1`, for which the GI50 with NCI-H23 was > 100 µM (inactive); in the test with CCRF-CEM it was 11.5 µM (inactive); in the test with A498 it was 43.3 µM (inactive); in the test with RPMI-8226, 56.5 µM (inactive); in the test on Malme-3M, > 100 µM (inactive); in the test with TK-10, 68.1 µM (inactive). For the same molecule, the GI50 with OVCAR-3 is > 100 µM (inactive); in the test with A549, > 100 µM (inactive); in the test with SR, 17.7 µM (inactive); with HL-60, 27.3 µM (inactive); with KM12 it was > 100 µM (inactive); with U-251, > 100 µM (inactive). The GI50 with SK-MEL-2 was 74.8 µM (inactive); with ACHN, 50.6 µM (inactive); in the test on NCI-H522 it was 84.7 µM (inactive); with IGROV-1, > 100 µM (inactive).
As for `O=C1NC(N2CCCCC2)=N/C1=C\c1ccccc1O`, the GI50 is > 100 µM (inactive) in the test with NCI-H23; > 100 µM (inactive) in the test on CCRF-CEM; > 100 µM (inactive) with A498; > 100 µM (inactive) with RPMI-8226; 23 µM (inactive) in the test with Malme-3M; > 100 µM (inactive) with TK-10. Further, the GI50 in the test on OVCAR-3 is > 100 µM (inactive); in the test on A549, > 100 µM (inactive); with SR, > 10 µM (inactive); in the test on HL-60, 43.5 µM (inactive); in the test with KM12, > 100 µM (inactive); with U-251, > 100 µM (inactive). Further, the GI50 is > 100 µM (inactive) in the test on SK-MEL-2; > 100 µM (inactive) with ACHN; > 100 µM (inactive) in the test with UO-31; 19.8 µM (inactive) with NCI-H522; > 100 µM (inactive) in the test with IGROV-1.
For the molecule `O=C(/C=C/c1ccc2c(c1)OCO2)NCc1ccco1`, the GI50 in the test on NCI-H23 is > 100 µM (inactive); with CCRF-CEM, > 100 µM (inactive); in the test on A498 it was 84.3 µM (inactive); in the test on Malme-3M, > 100 µM (inactive); in the test with TK-10, > 100 µM (inactive); with OVCAR-3 it was 82.2 µM (inactive). The GI50 in the test with A549 is > 100 µM (inactive); in the test on SR, 5.09 µM (inactive); in the test on KM12, > 100 µM (inactive); in the test on U-251 it was > 100 µM (inactive); in the test on SK-MEL-2, > 100 µM (inactive); with ACHN, > 100 µM (inactive). Further, the GI50 in the test with HCC 2998 was > 100 µM (inactive); in the test on UO-31 it was 67.1 µM (inactive); in the test on IGROV-1, 56 µM (inactive).
`O=C(O)C(=O)Cc1ccc2c(c1)OCO2`: the GI50 was > 100 µM (inactive) in the test on NCI-H23; 18.9 µM (inactive) in the test with CCRF-CEM; > 100 µM (inactive) in the test with A498; > 100 µM (inactive) with RPMI-8226; > 100 µM (inactive) in the test on TK-10; > 100 µM (inactive) with OVCAR-3. Moreover, the GI50 in the test on A549, in the test on SR, in the test with HL-60, in the test on KM12, in the test with U-251 and in the test with SK-MEL-2 was > 100 µM (inactive) in each case. In addition, the GI50 in the test with ACHN, with UO-31 and with IGROV-1 was > 100 µM (inactive) each time.
As to `CCOC(=O)C1CCC(=O)N1C(=O)c1cccc(Cl)c1` (centres undefined), the GI50 in the test on NCI-H23, in the test with CCRF-CEM, in the test with A498, in the test on RPMI-8226, with Malme-3M and in the test on TK-10 was > 100 µM (inactive) throughout. Moreover, the GI50 in the test with OVCAR-3, in the test on A549, with SR, in the test on HL-60, with KM12 and with U-251 was > 100 µM (inactive) each time. Also, the GI50 in the test with ACHN, in the test with UO-31, in the test on NCI-H522 and in the test with IGROV-1 was > 100 µM (inactive) each time.
As for `O=S1(=O)CCN(Cc2ccccn2)CC1`, the GI50 is > 100 µM (inactive) in the test on NCI-H23; > 100 µM (inactive) in the test with A498; > 100 µM (inactive) in the test on RPMI-8226; > 100 µM (inactive) with Malme-3M; > 100 µM (inactive) with TK-10; 4.49 µM (inactive) with OVCAR-3. In addition, the GI50 in the test on A549, with SR, in the test with KM12, in the test on U-251, with SK-MEL-2 and in the test on ACHN was > 100 µM (inactive) in each case. For the same molecule, the GI50 in the test with HCC 2998, in the test on UO-31, with NCI-H522 and in the test with IGROV-1 was > 100 µM (inactive) throughout.
As to `N[C@@H](Cc1ccc2oc3cc(=O)c4ccccc4c-3nc2c1)C(=O)O`, the GI50 with NCI-H23 was 13.4 µM (inactive); with CCRF-CEM, 38.5 µM (inactive); with A498, > 100 µM (inactive); in the test on RPMI-8226, > 100 µM (inactive); in the test on Malme-3M it was 3.37 µM (inactive); in the test with TK-10, > 100 µM (inactive). The GI50 is 27.2 µM (inactive) with OVCAR-3; 40.2 µM (inactive) in the test on A549; 24.7 µM (inactive) in the test with SR; > 100 µM (inactive) in the test on HL-60; > 100 µM (inactive) with KM12; 36.3 µM (inactive) with U-251. Moreover, the GI50 is 48.2 µM (inactive) in the test on ACHN, > 100 µM (inactive) with UO-31, 39.7 µM (inactive) in the test on NCI-H522 and > 100 µM (inactive) with IGROV-1.
Take `O=C(O)c1nc2ccc(C(F)(F)F)cc2nc1NCc1ccc(F)cc1`: the GI50 was 24 µM (inactive) in the test with NCI-H23; 37.3 µM (inactive) with CCRF-CEM; 23.7 µM (inactive) with A498; 21 µM (inactive) with RPMI-8226; 8.34 µM (inactive) in the test on OVCAR-3; 19.1 µM (inactive) with A549. Moreover, the GI50 is 15.3 µM (inactive) in the test with SR; 26.4 µM (inactive) in the test on KM12; 16.7 µM (inactive) with U-251; 19.5 µM (inactive) with SK-MEL-2; 27.2 µM (inactive) in the test on ACHN; 22.8 µM (inactive) with HCC 2998. Moreover, the GI50 in the test on UO-31 is 2.75 µM (inactive); in the test with IGROV-1, 25.4 µM (inactive).
With `COc1cc(C2=C(c3cc(OC)c4ccccc4c3OC)C(=O)c3ccccc3C2=O)c(OC)c2ccccc12`, the GI50 in the test with NCI-H23 was > 100 µM (inactive); with CCRF-CEM it was > 100 µM (inactive); in the test on A498, > 100 µM (inactive); in the test with Malme-3M, 62.5 µM (inactive); with TK-10, > 100 µM (inactive); with OVCAR-3, > 100 µM (inactive). Further, the GI50 was > 100 µM (inactive) in the test on A549; > 100 µM (inactive) in the test on SR; 10.2 µM (inactive) in the test on HL-60; > 100 µM (inactive) in the test with KM12; > 100 µM (inactive) in the test with U-251; > 100 µM (inactive) in the test on SK-MEL-2. The GI50 in the test on ACHN, in the test with UO-31, in the test with NCI-H522 and in the test with IGROV-1 was > 100 µM (inactive) in each case.
